The source of these data is paper PMC3326528 (Journal of the American Chemical Society, 2007).

Experiment [1] addresses T1, FDAS (Streptantibioticus cattleyicolor, UniProt Q70GK9). Description: Active site titration of FDAS. In kind it is biochemical, Streptomyces cattleya.
In experiment [2] the test system is FDAS. Description: Discontinuous assay of FDAS. Conditions: turnover at a fixed substrate concentration compared to the wild type. In kind it is biochemical, Streptomyces cattleya.
For a further experiment, the target named is FDAS (native, wild type) (Streptantibioticus cattleyicolor, UniProt Q70GK9). Briefly: Isothermal titration calorimetry. In kind it is binding.
Another experiment addresses apo FDAS (Streptantibioticus cattleyicolor, UniProt Q70GK9). Briefly: ITC binding of ligands to apo FDAS. Set-up: species or system Streptomyces cattleya. Conditions: for Stoichiometry (N) / Ka (app) / S / ΔH: 25 °C; for Stoichiometry (N): 20mM sodium phosphate buffer (pH 7.8), apo FDAS; for Ka (app) / S / ΔH: pH 7.8, apo FDAS.
Experiment [3] has as its target FDAS pre-incubated with adenosine (Streptantibioticus cattleyicolor, UniProt Q70GK9). Conditions: 1mM L-methionine titrated into 0.024 mM Adenosine and 0.02 mM apo FDAS mixture.
Experiment [4] addresses FDAS pre-incubated with 5′-FDA (Streptantibioticus cattleyicolor, UniProt Q70GK9). Conditions: 1mM L-methionine titrated into 0.08 mM FDA and 0.02 mM apo FDAS mixture.
Experiment [5] addresses T1, FDAS. Briefly: Reactivity of SAH / homocysteine with FDAS. The class given is biochemical, Streptomyces cattleya.
For the next experiment, the target named is D16N mutation of FDAS (Streptantibioticus cattleyicolor, UniProt Q70GK9, D16N). Description: ITC binding of SAM to D16N mutant. Also noted: species or system Streptomyces cattleya.
The target in experiment [6] is T1, FDAS. Description: Discontinuous assay of FDAS. In kind it is biochemical, Streptomyces cattleya. Conditions: F^− 200mM.

Take “5′-fluoro-5′-deoxy adenosine synthetase [FDAS]”: the “burst size (active sites)” value was determined as 0.1 µM at FDAS [1] (50 μM SAM mixed with FDAS (2 μM), reaction initiated with 100 mM F^−) and 0.6 µM at FDAS [1] (100 mM F^− pre-mixed with FDAS (2 μM), reaction initiated by 50 μM SAM). Besides, the “% activity” value with FDAS [2] is 100%.
At FDAS (native, wild type), `Nc1ncnc2c1ncn2[C@@H]1O[C@H](CO)C[C@H]1O` [3′-deoxy-Ade, 3′-deoxyadenosine] showed a Kd of 2220 nM.
Regarding `Nc1ncnc2c1ncn2[C@@H]1O[C@H](CO)C[C@H]1O` [3′-deoxy-Ade], at apo FDAS (ITC), the “reduction of affinity relative to adenosine” value stood at 3 fold, the “Stoichiometry (N)” value turned out to be 0.37 ± 0.02, the “Ka (app)” value was 4.5 ± 0.6 ×10^5 M^−1 and the S is -0.027 kcal/mol. Further, the ΔH on apo FDAS (ITC) was -16 ± 0.9 kcal/mol.
Turning to `Nc1ncnc2c1ncn2[C@@H]1O[C@H](CO)[C@@H](O)[C@H]1O` [Ade, adenosine], on apo FDAS (ITC), the “Stoichiometry (N)” value turned out to be 0.67 ± 0.01, the “Ka (app)” value is 12.2 ± 1.2 ×10^5 M^−1, the S was -0.04 kcal/mol and the ΔH was -20 ± 0.4 kcal/mol. For the same compound, at FDAS (native, wild type), binding was put at a Kd of 820 nM.
On to `Nc1ncnc2c1ncn2[C@@H]1O[C@H](CF)[C@@H](O)[C@H]1O` [FDA, 5′-fluoro-5′-deoxy adenosine], for which, on apo FDAS (ITC), the “Stoichiometry (N)” value was determined as 1.16 ± 0.01, the “Ka (app)” value is 45.5 ± 6.5 ×10^5 M^−1, the S was -0.017 kcal/mol and the ΔH was -14 ± 0.1 kcal/mol.
`Nc1ncnc2c1ncn2[C@@H]1O[C@H](CF)[C@@H](O)[C@H]1O` [FDA, 5′-fluoro-5′-deoxyadenosine (5′-FDA)] gave a Kd on FDAS (native, wild type) of 220 nM.
With `CSCC[C@H](N)C(=O)O` [L-methionine], in [3], the S is -0.022 kcal/mol, the “Stoichiometry (N)” value is 0.48 ± 0.11 and the ΔH was -13 ± 3 kcal/mol. Besides, in experiment [4], the S was -0.036 kcal/mol and the ΔH is -17 ± 2 kcal/mol.
`Nc1ncnc2c1ncn2[C@@H]1O[C@H](CSCC[C@H](N)C(=O)O)[C@@H](O)[C@H]1O` [SAH, S-adenosyl homocysteine]: on apo FDAS (ITC), the “binding affinity relative to SAM (times more tightly bound)” value turned out to be 40 times, the “Stoichiometry (N)” value amounted to 0.72 ± 0.01, the “Ka (app)” value is reported as 302 ± 74 ×10^5 M^−1 and the S was -0.098 kcal/mol. At apo FDAS (ITC), the ΔH was -40 ± 0.5 kcal/mol. The Kd on FDAS (native, wild type) was 33.1 nM. In addition, on FDAS [5], the “effect on the reaction of SAM with F^−” value is “inhibits” and the “substrate of FDAS in the forward direction” value is recorded as “not a substrate”. Also, at FDAS [5] (incubation of Cl^− and SAH), the “5′-ClDA production by the enzyme” value is listed as “does not produce 5′-ClDA”.
As for `C[S+](CC[C@H](N)C(=O)[O-])C[C@H]1O[C@@H](n2cnc3c(N)ncnc32)[C@H](O)[C@@H]1O` (stereo partly drawn) [SAM, S-adenosyl-L-methionine], the “SAM binding by ITC” value at D16N mutation of FDAS is “does not bind with measurable affinity”. Also, at apo FDAS (ITC), the “Stoichiometry (N)” value was found to be 0.56 ± 0.01, the “Ka (app)” value is 8.0 ± 0.5 ×10^5 M^−1, the S was -0.058 kcal/mol and the ΔH is -25 ± 0.4 kcal/mol. The Kd at FDAS (native, wild type) was 1250 nM. In addition, at FDAS [6], the “SAM concentration above which FDAS displays substrate inhibition” value is reported as “greater than 20 μM”.
With `F` [fluoride], the “binding to the protein by ITC” value on apo FDAS (either as apo or SAH complex) is listed as “too weak to measure”.
For `NC(CCS)C(=O)O` (stereo not shown) [homocysteine], the “SAH production by the enzyme (HPLC)” value at FDAS [5] (5-ClDA and homocysteine) is reported as “nor is any detected”; on FDAS [5] (homocysteine and 5′-FDA, reverse reaction), “no detectable production of SAH”.
